In patent US20250115865A1, “MAMMALIAN SPERM PREPARATION METHOD, ARTIFICIAL INSEMINATION METHOD, IN-VITRO FERTILIZATION METHOD, AND MEDIUM” (Hiroshima University, priority 2022, published 2025):

How the values were obtained:
pig sperm = assay: Pig artificial insemination with treated semen, sex of offspring; type: in vivo; details: semen treated in modified HTF medium pH 7.8, R848 3 nM, 60 minutes, 37° C.
Procedure: Pig semen diluted to 5 billion/100 mL with Hiro Swine B solution was centrifuged (500 G, 5 minutes, room temperature), and then the supernatant was discarded. The pig sperm were suspended in the same amount of modified HTF medium (pH 7.8, supplemented with R848 (3 nM)), and then cultured in a thermostat (60 minutes, 37° C.). Thereafter, centrifugation (500 G, 5 minutes, room temperature) was carried out, and the supernatant was discarded. Subsequently, the sperm were suspended in a diluent for artificial insemination, and then subjected to artificial insemination.

mouse sperm [1] = assay: Mouse in vitro fertilization with treated sperm, sex of blastocyst embryos by real-time PCR; type: cell-based; details: sperm treated with R848 3 nM
Procedure: Sperm were collected from the cauda epididymis of 12-week-old mature male mice. The mouse sperm were cultured in modified HTF medium (Glu medium, pH 7.8, supplemented with R848 (3 nM)) (60 minutes, 37° C.). In vitro fertilization was performed using sperm cultured in the same manner as in Experiment 7. Five days later, sperm that reached blastocyst embryos were collected, and the ratio between X-sperm and Y-sperm was calculated by real-time PCR.

mouse sperm [2] = assay: Mouse artificial insemination with treated sperm, sex of blastocyst embryos; type: in vivo; details: sperm treated with R848 3 nM, Glu medium pH 7.8, 60 minutes, 5/6 embryos
Procedure: Sperm were collected from the cauda epididymis of 12-week-old mature male mice. The mouse sperm were cultured in modified HTF medium (Glu medium, pH 7.8, supplemented with R848 (3 nM)) (60 minutes, 37° C.). Sperm cultured in the same manner as in Experiment 7 were subjected to artificial insemination, and the resulting blastocyst embryos were collected. As a result, 83.3% (5/6) of the embryos were female embryos.

bovine sperm [3] = assay: Acrosome retention rate of bovine sperm after culture and swim-up; type: cell-based; details: freeze-thawed bovine sperm, Glu medium pH 7.7, R848 3 nM, 30 minutes room temperature, swim-up from 1% PVP 15 minutes; FIG. 7
Procedure: Freeze-thawed bovine sperm, thawed and washed in modified HTF medium, were cultured in modified HTF medium (Glu medium, pH 7.7, supplemented with R848 (3 nM)) (30 minutes, room temperature). Centrifugation was carried out, and then the supernatant was discarded. Subsequently, the sperm were resuspended in modified HTF medium supplemented with 1% PVP and R848 (3 nM), and then placed under PVP-free modified HTF medium to form a lower layer. Fifteen minutes later, 1.5 mL of the upper layer and 0.5 mL of the lower layer were collected. Each layer was subjected to acrosome staining, and the acrosome retention rate was determined.

bovine sperm [4] = assay: X-sperm/Y-sperm ratio of bovine lower-layer sperm by fluorescence in situ hybridization; type: cell-based; details: freeze-thawed bovine sperm, Glu medium pH 7.7, R848 3 nM, swim-up, FISH, FIG. 8
bovine sperm [5] = assay: Bovine in vitro fertilization with upper-layer sperm, sex identification of blastocyst embryos by real-time PCR; type: cell-based; details: modified HTF medium pH 7.4, R848 3 nM, 30 minutes room temperature, FIG. 9
Procedure: Freeze-thawed bovine sperm, thawed and washed in modified HTF medium, were cultured in modified HTF medium (pH 7.4, supplemented with R848 (3 nM)) (30 minutes, room temperature). Centrifugation was carried out, and then the supernatant was discarded. Subsequently, the sperm were resuspended in modified HTF medium supplemented with 1% PVP and R848 (3 nM), and then placed under PVP-free modified HTF medium to form a lower layer. Fifteen minutes later, 1.5 mL of the upper layer was collected, washed, and then subjected to in vitro fertilization. Thereafter, the resulting blastocyst embryos were subjected to sex identification by real-time PCR.

[6] = blastocyst embryos after five days, Glu medium pH 7.8, 22 individuals

For CCOCc1nc2c(N)nc3ccccc3c2n1CC(C)(C)O [R848, resiquimod], the Female ratio (pig sperm) was 64%, the “Female (number of individuals)” value (pig sperm; 36 individuals) was 23 and the “Male (number of individuals)” value (pig sperm; 36 individuals) was 13. The “Female (number of embryos)” value (mouse sperm [1]; [6]) was 17, the “Male (number of embryos)” value (mouse sperm [1]; [6]) was 5 and the Female ratio (mouse sperm [1]; blastocyst embryos, Glu medium pH 7.8) was 77%. For the same compound, the “female embryos among blastocyst embryos” value (mouse sperm [2]) was 83.3%, the “acrosome retention rate of the sperm in the upper layer” value (bovine sperm [3]) was 70% and the “Y-sperm among the sperm in the lower layer” value (bovine sperm [4]) was 84%. The “XX embryos (female embryos) among blastocyst embryos” value (bovine sperm [5]) was 91%.
